Laboratory results published in publication PMC5879690 (Proceedings of the National Academy of Sciences of the …, 2018).

Molecular target: indoleamine 2,3-dioxygenase (IDO1) (Homo sapiens, UniProt P14902)
Assay: enzyme activity assay, N-formylkynurenine production
Type: biochemical

Sequence of indoleamine 2,3-dioxygenase (IDO1) (P14902 whole entry): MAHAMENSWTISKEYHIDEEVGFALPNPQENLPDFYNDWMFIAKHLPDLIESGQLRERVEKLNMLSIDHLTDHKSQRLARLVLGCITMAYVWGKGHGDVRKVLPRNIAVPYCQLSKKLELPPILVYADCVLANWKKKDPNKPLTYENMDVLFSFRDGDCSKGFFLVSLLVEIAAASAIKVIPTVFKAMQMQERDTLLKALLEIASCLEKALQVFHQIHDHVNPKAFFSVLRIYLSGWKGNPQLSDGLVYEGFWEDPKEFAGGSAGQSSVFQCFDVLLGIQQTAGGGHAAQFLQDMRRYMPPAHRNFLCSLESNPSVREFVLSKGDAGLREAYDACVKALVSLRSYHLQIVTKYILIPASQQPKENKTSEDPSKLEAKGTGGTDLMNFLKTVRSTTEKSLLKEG

## N[C@H](Cc1c[nH]c2ccccc12)C(=O)O [D-tryptophan]
  enzyme activity assay, N-formylkynurenine production: D-tryptophan was used as the substrate, which unlike L-tryptophan, does not cause substrate inhibition
